Reference: patent US20080009415A1, “Fungicidal Mixtures” (BASF Aktiengesellschaft, priority 2004, published 2008)

Tested on: Alternaria solani
Test: Activity against early blight of tomato caused by Alternaria solani
Type: in vivo
Conditions: single active compound, leaves sprayed to runoff, infected next day, assessed after 5 days, efficacy in % of untreated control (Abbot)
Method: The active compounds were prepared separately or jointly as a stock solution with 25 mg of active compound which was made up to 10 ml using a mixture of acetone and/or DMSO and the emulsifier Uniperol®) EL (wetting agent having emulsifying and dispersing action based on ethoxylated alkylphenols) in a volume ratio of solvent/emulsifier of 99 to 1. The mixture was then made up with water to 100 ml. This stock solution was diluted with the solvent/emulsifier/water mixture described to the concentration of active compounds stated below.
The visually determined percentages of infected leaf areas were converted into efficacies in % of the untreated control:
The efficacy (E) is calculated as follows using Abbot's formula: E=(1−α/β)·100 α corresponds to the fungicidal infection of the treated plants in % and β corresponds to the fungicidal infection of the untreated (control) plants in % An efficacy of 0 means that the infection level of the treated plants corresponds to that of the untreated control plants; an efficacy of 100 means that the treated plants were not infected.
The expected efficacies of mixtures of active compounds were determined using Colby's formula (Colby, S. R. “Calculating synergistic and antagonistic responses of herbicide combinations”, Weeds, 15, 20-22, 1967) and compared with the observed efficacies.
Colby's formula: E=x+y−x·y/100
E expected efficacy, expressed in % of the untreated control, when using the mixture of the active compounds A and B at the concentrations a and b x efficacy, expressed in % of the untreated control, when using the active compound A at the concentration a y efficacy, expressed in % of the untreated control, when using the active compound B at the concentration b Use Example—Activity Against Early Blight of Tomato Caused by Alternaria solani Leaves of potted plants of the cultivar “Goldene Königin” were sprayed to runoff point with an aqueous suspension having the concentration of active compound stated below. […]

Compound | Observed efficacy (%) (Conc. 1 ppm) | Observed efficacy (%) (Conc. 4 ppm)
COc1cc(C)c(C(=O)c2c(OC)ccc(Br)c2C)c(OC)c1OC [metrafenone (II-41), 3′-bromo-2,3,4,6′-tetramethoxy-2′,6-dimethylbenzophenone] | 0 | 0
CO/C=C(/C(=O)OC)c1ccccc1CO/N=C(C)/C=C/c1ccc(Cl)cc1 [enestroburin (I), methyl 2-{2-[3-(4-chlorophenyl)-1-methylallylideneaminooxymethyl]phenyl}-3-methoxyacrylate] | – | 22
